Here are results for 14 molecules from patent publication US9428452B2, “Compounds” (Glaxo Group Limited, priority 2012, dated 2016).

Where a name gives a salt, the structure may show the parent alone. A value given as a limit tells only on which side of the number the result lay.

The subject of the first experiment is IL-22 mRNA expression. Kind of experiment: Ex-vivo human skin model, IL-22 mRNA expression. The experiment is classed as cell-based. Particulars: four different donors, compound 10 μM. As for the experimental part: (§1) Fresh ex vivo human skin from healthy bariatric patients, that underwent abdominoplasty skin removal, was de-fatted and dermatomed at 750 μm. Dermatomed skin was incubated twice for 5-10 minutes at room temperature in PBS containing a antibiotic/antimycotic solution: Fungizone (Invitrogen #15290018), PSG (Fisher #BW17718R) and Gentamicin (Invitrogen #15750060). Skin was treated aseptically from this point on. Individual skin samples were obtained by 10 mm punch biopsy and placed in a 0.4 μm PCF membrane transwell (Millicell #PIHP01250) containing 30 μl of a 64% bovine collagen solution. After a 30 minute incubation at 37° C., which allows the collagen solution time to set, skin samples on transwells were transferred to 6-well plates (1 sample per well) and the lower chamber filled with 1 ml complete media (Cornification Media)+hydrocortisone (final concentration of 0.4 μg/ml) with or without test compounds at 10 μM (day −3) and allowed to rest overnight (16-18 h) at 37° C. Next, media was aspirated from the lower chamber, replaced with 1 ml complete media without hydrocortisone and incubated at 37° C. for 1 h. This constituted a ‘wash’ step. Following the hydrocortisone washout, media was again aspirated from the lower chamber and replaced with 1.0 ml complete media without hydrocortisone with or without GSK compounds at 10 μM (day −2). Cultures were incubated at 37° C. in a humidified chamber and media was refreshed one more day (day-1). The following day (day-0), cultures were stimulated for 24 h with a freshly made Th17 cytokine cocktail (CD3, 1 μg/ml, CD28, 2 μg/ml, IL-1b, 10 ng/ml, IL-6, 5 ng/ml, TGFb, 1 ng/ml, IL-21, 10 ng/ml, anti-IL-4, 1 μg/ml and anti-INFg, 1 μg/ml) with or without test compounds at 10 μM. Upon harvest (day +1), skin samples were minced with a razor blade and transferred to 1.5 ml RNAse-free tubes with 1 ml RNAlater solution until later analysis by RT-PCR (stored at −80 C).
(§2) Total RNA was isolated from about 30-40 mg of tissue using Qiagen's (Cat #74106) Mini RNA Isolation kit. Briefly, tissue was homogenized in the Precellys-24 machine using 300 μL of RLT buffer supplemented with 1% 2-Beta-Mercapto-Ethanol at 6300 rpm for 30 seconds for 6 cycles with a 2-minute ice break. 600 μL of water containing Proteinase K was added to the homogenate and digested at 55 C for 15 minutes. Digested tissue was spun down for 3 minutes at 10,000×g and the supernantant was used for RNA isolation using Qiagen's RNeasy mini columns according to manufacturer's protocol. 100 ng of RNA was used as template in a 20 μL PCR volume using Applied Biosciences RNA-to-CT 1 Step kit (AB Catalog #4392938) as well as the specific TaqMan probe for each gene to be quantified. Life Technologies FAM labeled Probes Catalog Numbers are as follows: ACTb=Hs01060665_g1, IL-17A=Hs00174383_m1, IL-17F=Hs00369400_m1, IL-22=Hs01574154_m1. All probes used (except for ACTb) expand an Exon. Applied Biosciences' Master Mix has a ROX dye internal control. OneStepPlus PCR machine was used for both the RT step and the 40 amplification cycles. RNA levels of gene of interest's relative expression were calculated using the Delta Delta CT formula.
(§3) First delta: Normalized to ACTb gene expression
(§4) Second delta: Normalized to sample 13 (Day 0+DMSO) for the gene of interest.
`CCc1ccc(N(CC(C)C)S(=O)(=O)c2ccc(OCC3CCOCC3)c(CO)c2)cc1` [Example E124, N-(4-ethylphenyl)-3-(hydroxymethyl)-N-isobutyl-4-((tetrahydro-2H-pyran-4-yl)methoxy)benzenesulfonamide]: the “gene transcription of il22 (result in words)” value is reported as “inhibited”.

A further experiment has as its system IL-17A mRNA expression. Kind of experiment: Ex-vivo human skin model, IL-17A mRNA expression. The conditions noted are these: four different donors, compound 10 μM. It is filed as cell-based. As for the experimental part:
as §1, §2, §3, §4
Turning to `CCc1ccc(N(CC(C)C)S(=O)(=O)c2ccc(OCC3CCOCC3)c(CO)c2)cc1` [Example E124, N-(4-ethylphenyl)-3-(hydroxymethyl)-N-isobutyl-4-((tetrahydro-2H-pyran-4-yl)methoxy)benzenesulfonamide], the “gene transcription of il17a (result in words)” value is reported as “inhibited”.

In the next experiment the test system is IL-17F mRNA expression. Kind of experiment: Ex-vivo human skin model, IL-17F mRNA expression. The experiment is classed as cell-based. Particulars: four different donors, compound 10 μM. As for the experimental part:
as §1, §2, §3, §4
In the case of `CCc1ccc(N(CC(C)C)S(=O)(=O)c2ccc(OCC3CCOCC3)c(CO)c2)cc1` [Example E124, N-(4-ethylphenyl)-3-(hydroxymethyl)-N-isobutyl-4-((tetrahydro-2H-pyran-4-yl)methoxy)benzenesulfonamide], the “gene transcription of il17f (result in words)” value is “inhibited”.

The test system of another experiment is IL-17A secreted from antiCD3/CD28 stimulated Peripheral Blood Mononuclear cells (PBMC). Kind of experiment: Peripheral Blood Mononucleocyte Cell Assay (PBMC Assay - IL-17). The experiment is classed as cell-based. The conditions noted are these: Homo sapiens, 48 h, IL-17A release, read-out: mean pIC50 (converted). As for the experimental part: Peripheral Blood Mononucleocvte Cell Assay (PBMC Assay—IL-17) […]
This assay is designed to measure levels of IL-17A secreted from antiCD3/CD28 stimulated frozen Peripheral Blood Mononuclear cells (PBMC) isolated from human blood with the aim of identifying inhibitors of IL-17A release.
2. The compounds for screening are dispensed into a master plate at 10 mM top concentration which are serially diluted 1:3 across 11 points in DMSO, then 500 nL is transferred into a 384-well flat-bottomed Greiner plate to which 50 uL of cell suspension is added: for the single shot screening the highest concentration of compound is 10^−5M; for 11 point full curve dose response studies the highest concentration is 10^−4 M.
As a low control, DMSO (as supplied, for example, by VWR) (final concentration 1%) in column 6 (16 points).
As a high control, 5-(4-fluorophenyl)-2-ureidothiophene-3-carboxamide (obtainable from, for example, Sigma) at a final concentration of 10^−4 M in DMSO should be used in column 18 (16 points).
9. Make the cell suspension at the concentration 8×10^5 cells/mL to give a final number of 40,000 cells/well.
1. Add well mixed CD3/CD28 Dynabeads (as supplied, for example, by Dynal) to achieve ratio bead:cell=2:1 (ie. a dilution of 1 in 20). Mix thoroughly.
2. Dispense the suspension into the 384 Assay Plates using Multidrop (50 uL per well). If the volume of cell suspension is large, mix the suspension after dispensing into every other plate.
3. Cover the plates with the lids and place them to the humidified incubator (37° C., 5% CO2) for 48 hours.
1. Transfer 10 uL of supernatants from assay plates to the MSD plates using Cybiwell. Ensure that all wells are covered with the solution. Tap the plate gently, if some of the wells are not covered with the supernatant.
3. Add 10 uL of MSD IL-17 detecting antibody using multidrop (1 ug/mL in D-PBS without Ca^2+ and Mg^2+ (supplied, for example, by Gibco)).
4. Cover the plates with adhesive foil and incubated with shaking for 3 hours at room temperature
7. Add 35 uL of MSD Read Buffer T×2 using multidrop.
8. Read plates on MSD MA6000 reader using the 384 well plate protocol as per manufacturer's instructions.
As to `CCc1ccc(N(CC(C)C)S(=O)(=O)c2ccc(C(O)CN3CCOCC3)cc2)cc1` (stereo not shown) [Example E113, N-(4-ethylphenyl)-4-(1-hydroxy-2-morpholinoethyl)-N-isobutylbenzenesulfonamide], the IC50 is < 1000 nM.

Consider `Cc1ccc(N(CC(C)C)S(=O)(=O)c2ccc(C(O)CN3CCOCC3)c(C)c2)c(C)c1` (stereo not shown) [Example E90, N-(2,4-dimethylphenyl)-4-(1-hydroxy-2-morpholinoethyl)-N-isobutyl-3-methylbenzenesulfonamide], for which the IC50 was < 1000 nM.

Consider `Cc1ccc(N(CC(C)C)S(=O)(=O)c2ccc(OCC3CCC(C)CC3)cc2)c(C)c1` (stereo not shown) [Example E47], for which the IC50 is > 100000 nM.

As to `Cc1ccc(N(CC(C)C)S(=O)(=O)c2ccc(C(O)CN3CCOCC3)cc2C)c(C)c1` (stereo not shown) [Example E88], the IC50 was < 1000 nM.

On to `Cc1ccc(N(CC(C)C)S(=O)(=O)c2ccc(C(O)CN3CCOCC3)c(Cl)c2)c(C)c1` (stereo not shown) [Example E84], for which the IC50 is < 1000 nM.

On to `Cc1ccc(N(CC(C)C)S(=O)(=O)c2ccc(OCC3(C)COCC(=O)N3)cc2)c(C)c1` (stereo not shown) [Example E11], for which the IC50 is < 1000 nM.

For the molecule `Cc1ccc(N(CC(C)C)S(=O)(=O)c2ccc(C(CO)N3CCOCC3)c(C)c2)c(C)c1` (stereo not shown) [Example E89, N-(2,4-dimethylphenyl)-4-(2-hydroxy-1-morpholinoethyl)-N-isobutyl-3-methylbenzenesulfonamide], the IC50 was < 1000 nM.

Regarding `Cc1ccc(N(CC(C)C)S(=O)(=O)c2ccc(C(O)CN3CCOCC3)cc2)c(C)c1` (single isomer, unassigned) [Example E122, N-(2,4-dimethylphenyl)-4-(1-hydroxy-2-morpholinoethyl)-N-isobutylbenzenesulfonamide], the IC50 was < 1000 nM.

On to `Cc1ccc(N(CC(C)C)S(=O)(=O)c2ccc(N3CCOCC3)cc2)c(C)c1` [Example E33], for which the IC50 was < 1000 nM.

As for `Cc1ccc(N(CC(C)C)S(=O)(=O)c2ccc(C(O)CN3CCOCC3)cc2)c(C)c1` (stereo not shown) [Example E120, N-(2,4-dimethylphenyl)-4-(1-hydroxy-2-morpholinoethyl-N-isobutylbenzenesulfonamide hydrochloride], the IC50 was < 1000 nM.

On to `Cc1ccc(N(CC(C)C)S(=O)(=O)c2ccc(OC[C@H]3NCCO[C@@H]3C)cc2)c(C)c1` [Example E36], for which the IC50 is < 1000 nM.

With `Cc1ccc(N(CC(C)C)S(=O)(=O)c2ccc(C(O)CN3CCOCC3)c(F)c2)c(C)c1` (stereo not shown) [Example E87], the IC50 was < 1000 nM.

In the case of `Cc1ccc(N(CC(C)C)S(=O)(=O)c2ccc(OCC3CCNCC3)cc2)c(C)c1` [Example E8, N-(2,4-dimethylphenyl)-N-isobutyl-4-(piperidin-4-ylmethoxy)benzenesulfonamide, Trifluoroacetic acid salt], the IC50 was < 1000 nM.
